Publication PMC9605497, “Potential of Epidermal Growth Factor-like Peptide from the Sea Cucumber Stichopus horrens to Increase the Growth of Human Cells: In Silico Molecular Docking Approach” (Marine Drugs, 2022)

Tested on: EGF/PDGF pathway genes
Assay: qPCR array of EGF/PDGF pathway genes
Format: cell-based, human
Design: key to expression class: +: Maximum expression; −: Minimum expression; unc.: Unchanged
Conditions: 10 nM, 4 h; for fold change: vs serum-free medium
Description: Cells were seeded at 80,000 cells per well of 24-well plates in 400 µL of complete growth medium. Cells were grown in MEM basal medium supplemented with 10% FBS and 1% antibiotic–antimycotic in a humidified incubator at 37 °C, equilibrated with 5% CO2. After 24 h of culture, the medium was removed, washed once with PBS, replaced with serum-free medium and left to culture for another 16 h. Medium was removed and replaced with corresponding treatment medium each in triplicates; 10 nM and 50 nM of Sh-EGFl-1, 10 nM and 50 nM of rhEGF were used as a positive control and serum-free medium was used as a negative control. Cells were harvested after 4 h. Medium was removed and 200 μL of Trizol reagent (Thermo Scientific, Waltham, MA, USA) was immediately added.
RNA extraction was performed according to Trizol reagent manufacturer’s protocol. An elution volume of 15 μL RNase-free water was added before the concentration and purity were determined using NanoDrop.
A total of 100 ng RNA was used initially for the cDNA synthesis reaction. The reaction was carried out according to RT^2 First Strand Kit’s protocol (Qiagen, Venlo, Netherlands). Genomic DNA was removed according to the manufacturer’s protocol prior to cDNA strand generation.
The 10 μL cDNA of human skin cells was diluted with 91 μL prior to qPCR reaction. Primer pairs of 84 genes involved in the EGF pathway, five housekeeping genes such as ribosomal protein large, P0 (RPL0), glyceraldehyde-3-phosphate-dehydrogenase (GAPDH), beta-actin (ACTB), beta-2-microglobulin (B2M) and hypoxanthine phosphoribosyltransferase 1 (HPRT1), one positive control gene for genomic DNA contamination, three reverse transcription control genes and three PCR-positive controls were included in the Qiagen PAHS-040ZA qPCR array plate (Qiagen, Venlo, Netherlands). A list of all genes analyzed in this study is available in Supplementary Materials Table S7. The mixture reaction was prepared according to the protocol and run using BioRad CFX96TM. Samples of 10 nM rhEGF and 10 nM Sh-EGFl-1 were prepared in duplicates. The following thermal profile was applied: 1 cycle at 95 °C for 10 min, 40 cycles at 95 °C for 15 s, 60 °C for 1 min, with the ramp rate from 95 °C to 60 °C was set at 1 °C every second. The data were then analyzed through Qiagen web portal. Data for serum-free medium were selected as a control group and the differences in gene expression between control and treatment groups were calculated using the 2^(−delta delta CT) method. The difference, known as fold change, was obtained from the delta delta CT values, which are the genes of interest and the average housekeeping genes, followed by the delta delta CT (delta CT (treatment group)—delta CT (control group)).

[1] = IKBKB (IKK), PLC gamma signaling
[2] = PLCG1 (PLC), PLC gamma signaling
[3] = PPP2CA (TSC2), PLC gamma signaling
[4] = RASA1 (p120GAP), MAPK signaling
[5] = RPS6KA5 (p70S6K), MAPK signaling
[6] = RPS6KA5 (p70S6K), PI3K signaling
[7] = RPS6KA5 (p70S6K), PLC gamma signaling
[8] = RPS6KB1 (p70S6K), MAPK signaling
[9] = RPS6KB1 (p70S6K), PI3K signaling
[10] = RPS6KB1 (p70S6K), PLC gamma signaling

What does the source list for “H-MNSDSECPLSHDGYCLHDGVCMYIEALDKYACNCVVGYIGERCQYRDLKWWELR-OH (disulfide) [rhEGF, Recombinant human EGF purchased from Thermo Scientific, reference compound]”?
gene expression profile, EGF/PDGF pathway (qPCR array heat map): opposite gene expression profile; expression class (AKT1, PI3K signaling): −; fold change (AKT1, PI3K signaling): (0.69); expression class (AKT3, PI3K signaling): −; fold change (AKT3, PI3K signaling): (0.87); expression class (ATF1, MAPK signaling): −; fold change (ATF1, MAPK signaling): (0.87); expression class (ATF2, MAPK signaling): −; fold change (ATF2, MAPK signaling): (0.67); expression class (CASP3, MAPK signaling): −; fold change (CASP3, MAPK signaling): (0.70); expression class (CASP9, MAPK signaling): −; fold change (CASP9, MAPK signaling): (0.63); expression class (CBL, MAPK signaling): −; fold change (CBL, MAPK signaling): (0.96); expression class (CCND1, PI3K signaling): −; fold change (CCND1, PI3K signaling): (0.83); expression class (DUSP1, MAPK signaling): −; fold change (DUSP1, MAPK signaling): (0.50); expression class (DUSP6, MAPK signaling): −; fold change (DUSP6, MAPK signaling): (0.74); expression class (E1F4E, PI3K signaling): +; fold change (E1F4E, PI3K signaling): (1.24); expression class (ELK1, JAK-STAT signaling): −; fold change (ELK1, JAK-STAT signaling): (0.77); expression class (FOS, JAK-STAT signaling): −; fold change (FOS, JAK-STAT signaling): (1.02); expression class (GAB1, PI3K signaling): +; fold change (GAB1, PI3K signaling): (0.88); expression class (GRB2, PI3K signaling): −; fold change (GRB2, PI3K signaling): (0.76); expression class (GSK3A, PI3K signaling): −; fold change (GSK3A, PI3K signaling): (0.75); expression class (GSK3B, PI3K signaling): −; fold change (GSK3B, PI3K signaling): (0.84); expression class (HRAS, MAPK signaling): −; fold change (HRAS, MAPK signaling): (0.62); expression class (IKBKB (IKK), PI3K signaling): −; fold change (IKBKB (IKK), PI3K signaling): (0.73); expression class [1]: −; fold change [1]: (0.73); expression class (IKBKB, MAPK signaling): −; fold change (IKBKB, MAPK signaling): (0.73); expression class (JAK1, JAK-STAT signaling): −; fold change (JAK1, JAK-STAT signaling): (0.77); expression class (JUN, JAK-STAT signaling): unc.; fold change (JUN, JAK-STAT signaling): (0.98); expression class (MAP2K1 (MEK1), MAPK signaling): −; fold change (MAP2K1 (MEK1), MAPK signaling): (0.74); expression class (MAP2K4 (MKK4), MAPK signaling): −; fold change (MAP2K4 (MKK4), MAPK signaling): (0.51); expression class (MAP2K7 (MKK7), MAPK signaling): +; fold change (MAP2K7 (MKK7), MAPK signaling): (0.95); expression class (MAP3K2 (MEKK2), MAPK signaling): −; fold change (MAP3K2 (MEKK2), MAPK signaling): (0.82); expression class (MAPK1 (ERK2), MAPK signaling): −; fold change (MAPK1 (ERK2), MAPK signaling): (0.76); expression class (MAPK3 (ERK1), MAPK signaling): −; fold change (MAPK3 (ERK1), MAPK signaling): (0.79); expression class (MAPK8, MAPK signaling): −; fold change (MAPK8, MAPK signaling): (0.73); expression class (MAPK9, MAPK signaling): −; fold change (MAPK9, MAPK signaling): (0.54); expression class (MAPK10, MAPK signaling): +; fold change (MAPK10, MAPK signaling): (1.24); expression class (MKNK1, MAPK signaling): −; fold change (MKNK1, MAPK signaling): (0.54); expression class (NFATC3, MAPK signaling): −; fold change (NFATC3, MAPK signaling): (0.96); expression class (NFKB, PI3K signaling): −; fold change (NFKB, PI3K signaling): (0.90); expression class (NFKB, PLC gamma signaling): −; fold change (NFKB, PLC gamma signaling): (0.90); expression class (P13KCA, PI3K signaling): −; fold change (P13KCA, PI3K signaling): (1.08); expression class (PDPK1 (PDK1), PI3K signaling): −; fold change (PDPK1 (PDK1), PI3K signaling): (0.86); expression class (PIK3R1, PI3K signaling): −; fold change (PIK3R1, PI3K signaling): (0.80); expression class (PIK3R2, PI3K signaling): −; fold change (PIK3R2, PI3K signaling): (0.75); expression class [2]: −; fold change [2]: (0.89); expression class [3]: −; fold change [3]: (0.69); expression class (PRKCA, PLC gamma signaling): −; fold change (PRKCA, PLC gamma signaling): (0.78); expression class (RAP1A, MAPK signaling): −; fold change (RAP1A, MAPK signaling): (0.80); expression class [4]: −; fold change [4]: (0.83); expression class (RHOA, Rho signaling): −; fold change (RHOA, Rho signaling): (0.84); expression class [5]: unc.; fold change [5]: (0.75); expression class [6]: unc.; fold change [6]: (0.75); expression class [7]: unc.; fold change [7]: (0.75); expression class [8]: −; fold change [8]: (0.68); expression class [9]: −; fold change [9]: (0.68); expression class [10]: −; fold change [10]: (0.68); expression class (SHC1, MAPK signaling): −; fold change (SHC1, MAPK signaling): (0.80); expression class (SHC1, PI3K signaling): −; expression class (SRC, JAK-STAT signaling): +; fold change (SRC, JAK-STAT signaling): (1.16); expression class (STAT3, JAK-STAT signaling): −; fold change (STAT3, JAK-STAT signaling): (0.89); expression class (STAT5, JAK-STAT signaling): −; fold change (STAT5, JAK-STAT signaling): (0.89); expression class (TP53, MAPK signaling): unc.; fold change (TP53, MAPK signaling): (0.82); expression class (TP53, PI3K signaling): unc.; fold change (TP53, PI3K signaling): (0.82)
